Results published in patent US20230398130A1, “METHODS AND COMPOSITIONS FOR DIFFERENTIATING STEM CELLS” (Massachusetts Institute of Technology, priority 2020, published 2023).
Structures can show the parent of a compound that is named as a salt.

Legend:
[1] = test system: ISC-enriched organoids; test: Primary screen, 384-well 2.5-D organoid differentiation (ENR+CD, 6 days): basal lysozyme secretion (LYZ.NS); format: cell-based, murine; conditions: primary screen; for Dose.FC.LYZ.NS: FC vs plate median; for Z.LYZ.NS: standard z score; for SSMD.LYZ.NS: strictly standardized mean difference
Text: (§1) High-throughput screening.

[2] = test system: ISC-enriched organoids; test: Primary screen, 384-well 2.5-D organoid differentiation (ENR+CD, 6 days): carbachol-induced lysozyme secretion (LYZ.S); format: cell-based, murine; conditions: primary screen; for Dose.FC.LYZ.S: FC vs plate median; for Z.LYZ.S: standard z score; for SSMD.LYZ.S: strictly standardized mean difference
Text: as §1

[3] = test system: ISC-enriched organoids; test: Primary screen, 384-well 2.5-D organoid differentiation (ENR+CD, 6 days, Target Selective Inhibitor Library, vs whole-plate median): ATP (CellTiter-Glo 3D, CTG); conditions: primary screen; for Dose.FC.CTG: FC vs plate median; for Z.CTG: standard z score; for SSMD.CTG: strictly standardized mean difference
[4] = 1st of the 4 dose lines of the treatment (dose not given)
[5] = 2nd of the 4 dose lines of the treatment (dose not given)
[6] = 3rd of the 4 dose lines of the treatment (dose not given)
[7] = 4th of the 4 dose lines of the treatment (dose not given)

`CNC(=O)[C@H](Cc1c[nH]c2ccccc12)NC(=O)[C@@H](CC(=O)NO)CC(C)C` [Ilomastat (GM6001, Galardin)] was tested, and the Dose.FC.LYZ.NS ([1]; Dose 0.08 uM) was 0.055 log 2 fold change, the Z.LYZ.NS ([1]; Dose 0.08 uM) was 0.482 and the Dose.FC.LYZ.NS ([1]; Dose 0.40 uM) was −0.011 log 2 fold change. It also gave a Z.LYZ.NS ([1]; Dose 0.40 uM) of −0.092, a Dose.FC.LYZ.NS ([1]; Dose 2.00 uM) of 0.007 log 2 fold change and a Z.LYZ.NS ([1]; Dose 2.00 uM) of 0.064. The Dose.FC.LYZ.NS ([1]; Dose 10.00 uM) was −0.106 log 2 fold change, the Z.LYZ.NS ([1]; Dose 10.00 uM) was −0.919 and the SSMD.LYZ.NS [1, 4] was 0.305. The SSMD.LYZ.NS [1, 5] was −0.056, the SSMD.LYZ.NS [1, 6] was 0.066 and the SSMD.LYZ.NS [1, 7] was −0.635. For the same molecule, the Dose.FC.LYZ.S ([2]; Dose 0.08 uM) was 0.214 log 2 fold change, the Dose.FC.LYZ.S ([2]; Dose 0.40 uM) was 0.117 log 2 fold change and the Dose.FC.LYZ.S ([2]; Dose 2.00 uM) was 0.024 log 2 fold change. It also gave a Dose.FC.LYZ.S ([2]; Dose 10.00 uM) of −0.078 log 2 fold change, a Z.LYZ.S [2, 4] of 1.385 and a Z.LYZ.S [2, 5] of 0.754. The Z.LYZ.S [2, 6] was 0.153, the Z.LYZ.S [2, 7] was −0.502 and the SSMD.LYZ.S [2, 4] was 1.175. The SSMD.LYZ.S [2, 5] was 0.580, the SSMD.LYZ.S [2, 6] was 0.164 and the SSMD.LYZ.S [2, 7] was −0.329. For the same molecule, the Dose.FC.CTG ([3]; Dose 0.08 uM) was 0.197 log 2 fold change, the Z.CTG ([3]; Dose 0.08 uM) was 0.470 and the Dose.FC.CTG ([3]; Dose 0.40 uM) was 0.163 log 2 fold change. The Z.CTG ([3]; Dose 0.40 uM) was 0.389, the Dose.FC.CTG ([3]; Dose 2.00 uM) was 0.091 log 2 fold change and the Z.CTG ([3]; Dose 2.00 uM) was 0.216. For the same molecule, the Dose.FC.CTG ([3]; Dose 10.00 uM) was −0.110 log 2 fold change, the Z.CTG ([3]; Dose 10.00 uM) was −0.264 and the SSMD.CTG [3, 4] was 0.482. The SSMD.CTG [3, 5] was 0.406, the SSMD.CTG [3, 6] was 0.321 and the SSMD.CTG [3, 7] was −0.348.
For `CCOC(=O)[C@H](CCc1ccccc1)N[C@@H](C)C(=O)N1C(=O)N(C)C[C@H]1C(=O)O` [Imidapril HCl], the SSMD.LYZ.NS [1, 4] was −0.047, the SSMD.LYZ.NS [1, 5] was 0.004 and the SSMD.LYZ.NS [1, 6] was 0.101. It also gave an SSMD.LYZ.NS [1, 7] of −0.541, a Z.LYZ.S [2, 4] of −0.274 and a Z.LYZ.S [2, 5] of 0.702. The Z.LYZ.S [2, 6] was −0.226, the Z.LYZ.S [2, 7] was −0.487 and the SSMD.LYZ.S [2, 4] was −0.269. For the same molecule, the SSMD.LYZ.S [2, 5] was 0.315, the SSMD.LYZ.S [2, 6] was −0.262 and the SSMD.LYZ.S [2, 7] was −0.404. The Z.CTG ([3]; Dose 0.08 uM) was −0.796, the Z.CTG ([3]; Dose 0.40 uM) was −0.354 and the Z.CTG ([3]; Dose 2.00 uM) was −0.564. The Z.CTG ([3]; Dose 10.00 uM) was −0.543, the SSMD.CTG [3, 4] was −1.054 and the SSMD.CTG [3, 5] was −0.525. The SSMD.CTG [3, 6] was −0.548 and the SSMD.CTG [3, 7] was −0.699.
In the case of `NC(=O)c1ccc(I)c([N+](=O)[O-])c1` [Iniparib (BSI-201)], the Dose.FC.LYZ.NS ([1]; Dose 0.08 uM) is reported as 0.042 log 2 fold change, the Z.LYZ.NS ([1]; Dose 0.08 uM) is reported as 0.364 and the Dose.FC.LYZ.NS ([1]; Dose 0.40 uM) is reported as 0.000 log 2 fold change. It also gave a Z.LYZ.NS ([1]; Dose 0.40 uM) of 0.003, a Dose.FC.LYZ.NS ([1]; Dose 2.00 uM) of 0.016 log 2 fold change and a Z.LYZ.NS ([1]; Dose 2.00 uM) of 0.138. It also gave a Dose.FC.LYZ.NS ([1]; Dose 10.00 uM) of −0.016 log 2 fold change, a Z.LYZ.NS ([1]; Dose 10.00 uM) of −0.139 and an SSMD.LYZ.NS [1, 4] of 0.375. It also gave an SSMD.LYZ.NS [1, 5] of 0.003, an SSMD.LYZ.NS [1, 6] of 0.109 and an SSMD.LYZ.NS [1, 7] of −0.163. For the same molecule, the Dose.FC.LYZ.S ([2]; Dose 0.08 uM) was 0.032 log 2 fold change, the Dose.FC.LYZ.S ([2]; Dose 0.40 uM) was 0.035 log 2 fold change and the Dose.FC.LYZ.S ([2]; Dose 2.00 uM) was −0.001 log 2 fold change. For the same molecule, the Dose.FC.LYZ.S ([2]; Dose 10.00 uM) was −0.010 log 2 fold change, the Z.LYZ.S [2, 4] was 0.205 and the Z.LYZ.S [2, 5] was 0.229. For the same molecule, the Z.LYZ.S [2, 6] was −0.006, the Z.LYZ.S [2, 7] was −0.062 and the SSMD.LYZ.S [2, 4] was 0.148. It also gave an SSMD.LYZ.S [2, 5] of 0.247, an SSMD.LYZ.S [2, 6] of −0.005 and an SSMD.LYZ.S [2, 7] of −0.070. For the same molecule, the Dose.FC.CTG ([3]; Dose 0.08 uM) was 0.339 log 2 fold change, the Z.CTG ([3]; Dose 0.08 uM) was 0.810 and the Dose.FC.CTG ([3]; Dose 0.40 uM) was 0.181 log 2 fold change. For the same molecule, the Z.CTG ([3]; Dose 0.40 uM) was 0.432, the Dose.FC.CTG ([3]; Dose 2.00 uM) was 0.157 log 2 fold change and the Z.CTG ([3]; Dose 2.00 uM) was 0.375. The Dose.FC.CTG ([3]; Dose 10.00 uM) was 0.244 log 2 fold change, the Z.CTG ([3]; Dose 10.00 uM) was 0.583 and the SSMD.CTG [3, 4] was 0.883. The SSMD.CTG [3, 5] was 0.347, the SSMD.CTG [3, 6] was 0.475 and the SSMD.CTG [3, 7] was 0.721.
For `CCc1c2c(nc3ccc(OC(=O)N4CCC(N5CCCCC5)CC4)cc13)-c1cc3c(c(=O)n1C2)COC(=O)[C@]3(O)CC` [Irinotecan HCl Trihydrate], the SSMD.LYZ.NS [1, 4] was −0.182, the SSMD.LYZ.NS [1, 5] was −0.831 and the SSMD.LYZ.NS [1, 6] was −1.832. It also gave an SSMD.LYZ.NS [1, 7] of −2.032, a Z.LYZ.S [2, 4] of −0.261 and a Z.LYZ.S [2, 5] of −1.020. The Z.LYZ.S [2, 6] was −1.895, the Z.LYZ.S [2, 7] was −2.375 and the SSMD.LYZ.S [2, 4] was −0.311. For the same molecule, the SSMD.LYZ.S [2, 5] was −0.747, the SSMD.LYZ.S [2, 6] was −1.550 and the SSMD.LYZ.S [2, 7] was −1.941. It also gave a Z.CTG ([3]; Dose 0.08 uM) of −0.199, a Z.CTG ([3]; Dose 0.40 uM) of −0.491 and a Z.CTG ([3]; Dose 2.00 uM) of −0.758. For the same molecule, the Z.CTG ([3]; Dose 10.00 uM) was −1.404, the SSMD.CTG [3, 4] was −0.305 and the SSMD.CTG [3, 5] was −0.694. For the same molecule, the SSMD.CTG [3, 6] was −1.060 and the SSMD.CTG [3, 7] was −1.809.
For `CCc1c2c(nc3ccc(OC(=O)N4CCC(N5CCCCC5)CC4)cc13)-c1cc3c(c(=O)n1C2)COC(=O)[C@]3(O)CC` [Irinotecan], the SSMD.LYZ.NS [1, 4] was −0.217, the SSMD.LYZ.NS [1, 5] was −0.556 and the SSMD.LYZ.NS [1, 6] was −1.415. The SSMD.LYZ.NS [1, 7] was −1.102, the Z.LYZ.S [2, 4] was −0.023 and the Z.LYZ.S [2, 5] was −0.939. The Z.LYZ.S [2, 6] was −1.596, the Z.LYZ.S [2, 7] was −1.624 and the SSMD.LYZ.S [2, 4] was −0.018. For the same molecule, the SSMD.LYZ.S [2, 5] was −0.721, the SSMD.LYZ.S [2, 6] was −1.400 and the SSMD.LYZ.S [2, 7] was −1.217. For the same molecule, the Z.CTG ([3]; Dose 0.08 uM) was −0.265, the Z.CTG ([3]; Dose 0.40 uM) was −1.872 and the Z.CTG ([3]; Dose 2.00 uM) was −1.875. For the same molecule, the Z.CTG ([3]; Dose 10.00 uM) was −2.951, the SSMD.CTG [3, 4] was −0.378 and the SSMD.CTG [3, 5] was −1.558. It also gave an SSMD.CTG [3, 6] of −1.491 and an SSMD.CTG [3, 7] of −2.716.
With `Cc1ccc(C(=O)N(CCCN)[C@@H](c2nc3cc(Cl)ccc3c(=O)n2Cc2ccccc2)C(C)C)cc1` [Ispinesib (SB-715992)] the Dose.FC.LYZ.NS ([1]; Dose 0.08 uM) was −0.222 log 2 fold change, the Z.LYZ.NS ([1]; Dose 0.08 uM) was −1.931 and the Dose.FC.LYZ.NS ([1]; Dose 0.40 uM) was −0.191 log 2 fold change. It also gave a Z.LYZ.NS ([1]; Dose 0.40 uM) of −1.663, a Dose.FC.LYZ.NS ([1]; Dose 2.00 uM) of −0.196 log 2 fold change and a Z.LYZ.NS ([1]; Dose 2.00 uM) of −1.709. It also gave a Dose.FC.LYZ.NS ([1]; Dose 10.00 uM) of −0.201 log 2 fold change, a Z.LYZ.NS ([1]; Dose 10.00 uM) of −1.752 and an SSMD.LYZ.NS [1, 4] of −1.681. It also gave an SSMD.LYZ.NS [1, 5] of −1.354, an SSMD.LYZ.NS [1, 6] of −1.617 and an SSMD.LYZ.NS [1, 7] of −1.093. For the same molecule, the Dose.FC.LYZ.S ([2]; Dose 0.08 uM) was −0.271 log 2 fold change, the Dose.FC.LYZ.S ([2]; Dose 0.40 uM) was −0.296 log 2 fold change and the Dose.FC.LYZ.S ([2]; Dose 2.00 uM) was −0.287 log 2 fold change. For the same molecule, the Dose.FC.LYZ.S ([2]; Dose 10.00 uM) was −0.286 log 2 fold change, the Z.LYZ.S [2, 4] was −1.753 and the Z.LYZ.S [2, 5] was −1.914. It also gave a Z.LYZ.S [2, 6] of −1.859, a Z.LYZ.S [2, 7] of −1.850 and an SSMD.LYZ.S [2, 4] of −1.495. The SSMD.LYZ.S [2, 5] was −1.509, the SSMD.LYZ.S [2, 6] was −1.657 and the SSMD.LYZ.S [2, 7] was −1.525. It also gave a Dose.FC.CTG ([3]; Dose 0.08 uM) of −0.323 log 2 fold change, a Z.CTG ([3]; Dose 0.08 uM) of −0.772 and a Dose.FC.CTG ([3]; Dose 0.40 uM) of −0.518 log 2 fold change. It also gave a Z.CTG ([3]; Dose 0.40 uM) of −1.238, a Dose.FC.CTG ([3]; Dose 2.00 uM) of −0.511 log 2 fold change and a Z.CTG ([3]; Dose 2.00 uM) of −1.220. The Dose.FC.CTG ([3]; Dose 10.00 uM) was −0.713 log 2 fold change, the Z.CTG ([3]; Dose 10.00 uM) was −1.704 and the SSMD.CTG [3, 4] was −0.942. The SSMD.CTG [3, 5] was −0.971, the SSMD.CTG [3, 6] was −1.118 and the SSMD.CTG [3, 7] was −1.236.
